These molecules were tested on Human platelet aggregation caused by ADP (assay: Inhibition of ADP-induced platelet aggregation (Mimic-human PRP)). Details: 20 μM ADP, human platelet concentrate diluted with PPP, absorption at 595 nm.
Format: cell-based
Outline: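 Human PRP diluted with PPP to 3–4×10^8 platelets/mL was preincubated 20 min at room temperature with compound (0.01–30 μM, DMSO), then stimulated with 20 μM ADP. Aggregation read as A595 increase at 3 min versus 0 and 20 μM ADP controls; Ki from sigmoidal non-linear regression.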
`CCCc1cc2c(N3CCn4c(nnc4C(F)(F)F)C3)nc(N3CC[C@H](NC=O)C3)nc2s1` [Example 9-21, N-{(S)-1-[6-Propyl-4-(3-trifluoromethyl-5,6-dihydro-8H-[1,2,4]triazolo[4,3-a]pyrazin-7-yl)-thieno[2,3-d]pyrimidin-2-yl]-pyrrolidin-3-yl}-formamide] gave a Ki of 0.006 µM. For `CCCc1cc2c(N3CCn4c(nnc4C(F)(F)F)C3)nc(N3CC[C@@H](NC=O)C3)nc2s1` [Example 9-22, N-{(R)-1-[6-Propyl-4-(3-trifluoromethyl-5,6-dihydro-8H-[1,2,4]triazolo[4,3-a]pyrazin-7-yl)-thieno[2,3-d]pyrimidin-2-yl]-pyrrolidin-3-yl}-formamide], the Ki was 0.015 µM. Work on `CCCc1cc2c(N3CCn4c(nnc4C(F)(F)F)C3)nc(OCCNC=O)nc2s1` [Example 9-23, N-{2-[6-Propyl-4-(3-trifluoromethyl-5,6-dihydro-8H-[1,2,4]triazolo[4,3-a]pyrazin-7-yl)-thieno[2,3-d]pyrimidin-2-yloxy]-ethyl}-formamide] yielded a Ki of 0.003 µM. For `CCCc1cc2c(N3CCn4c(nnc4C(F)(F)F)C3)nc(N3CC[C@H](N(C)C(C)=O)C3)nc2s1` [Example 9-24, N-Methyl-N-{(S)-1-[6-propyl-4-(3-trifluoromethyl-5,6-dihydro-8H-[1,2,4]triazolo[4,3-a]pyrazin-7-yl)-thieno[2,3-d]pyrimidin-2-yl]-pyrrolidin-3-yl}-acetamide], the Ki was 0.31 µM. `CCCc1cc2c(N3CCn4c(nnc4C(F)(F)F)C3)nc(OCCNC(=O)NC)nc2s1` [Example 9-25, 1-Methyl-3-{2-[6-propyl-4-(3-trifluoromethyl-5,6-dihydro-8H-[1,2,4]triazolo[4,3-a]pyrazin-7-yl)-thieno[2,3-d]pyrimidin-2-yloxy]-ethyl}-urea] gave a Ki of 0.0057 µM. With `CCCc1cc2c(N3CCn4c(nnc4C(F)(F)F)C3)nc(OCCNC(=O)N3CCCC3)nc2s1` [Example 9-26, Pyrrolidine-1-carboxylic Acid {2-[6-propyl-4-(3-trifluoromethyl-5,6-dihydro-8H-[1,2,4]triazolo[4,3-a]pyrazin-7-yl)-thieno[2,3-d]pyrimidin-2-yloxy]-ethyl}-amide] the Ki was 0.016 µM. For `CCCc1cc2c(N3CCn4c(nnc4C(F)(F)F)C3)nc(OCCNC(N)=O)nc2s1` [Example 9-27, {2-[6-Propyl-4-(3-trifluoromethyl-5,6-dihydro-8H-[1,2,4]triazolo[4,3-a]pyrazin-7-yl)-thieno[2,3-d]pyrimidin-2-yloxy]-ethyl}-urea], the Ki was 0.0065 µM. In the case of `CCCc1cc2c(N3CCn4c(nnc4C(F)(F)F)C3)nc(N3CC(O)C(NC=O)C3)nc2s1` (stereo not drawn) [Example 9-28, N-{4-Hydroxy-1-[6-propyl-4-(3-trifluoromethyl-5,6-dihydro-8H-[1,2,4]triazolo[4,3-a]pyrazin-7-yl)-thieno[2,3-d]pyrimidin-2-yl]-pyrrolidin-3-yl}-formamide], the Ki is reported as 0.00016 µM. `CCCc1cc2c(N3CCn4c(nnc4C(F)(F)F)C3)nc(N3CC(Cl)C(NC(C)=O)C3)nc2s1` (stereo not drawn) [Example 9-29, N-{4-Chloro-1-[6-propyl-4-(3-trifluoromethyl-5,6-dihydro-8H-[1,2,4]triazolo[4,3-a]pyrazin-7-yl)-thieno[2,3-d]pyrimidin-2-yl]-pyrrolidin-3-yl}-acetamide] gave a Ki of 0.0022 µM. `CCCc1cc2c(N3CCn4c(nnc4C(F)(F)F)C3)nc(N3CC4N=C(C)OC4C3)nc2s1` (stereo not drawn) [Example 9-30, 7-[2-(2-Methyl-3a,4,6,6a-tetrahydro-pyrrolo[3,4-d]oxazol-5-yl)-6-propyl-thieno[2,3-d]pyrimidin-4-yl]-3-trifluoromethyl-5,6,7,8-tetrahydro-[1,2,4]triazolo[4,3-a]pyrazine] showed a Ki of 0.0003 µM. Work on `CCCc1cc2c(N3CCn4c(nnc4C(F)(F)F)C3)nc(NCCNC=O)nc2s1` [Example 9-31, N-{2-[6-Propyl-4-(3-trifluoromethyl-5,6-dihydro-8H-[1,2,4]triazolo[4,3-a]pyrazin-7-yl)-thieno[2,3-d]pyrimidin-2-ylamino]-ethyl}-formamide] yielded a Ki of 0.087 µM. In the case of `CCCc1cc2c(N3CCn4c(nnc4C(F)(F)F)C3)nc(NCCNC(=O)OC)nc2s1` [Example 9-32, {2-[6-Propyl-4-(3-trifluoromethyl-5,6-dihydro-8H-[1,2,4]triazolo[4,3-a]pyrazin-7-yl)-thieno[2,3-d]pyrimidin-2-ylamino]-ethyl}-carbamic acid methyl ester], the Ki is reported as 0.029 µM. `CCCc1cc2c(N3CCn4c(nnc4C(F)(F)F)C3)nc(N3CCNC3=O)nc2s1` [Example 9-33, 1-[6-Propyl-4-(3-trifluoromethyl-5,6-dihydro-8H-[1,2,4]triazolo[4,3-a]pyrazin-7-yl)-thieno[2,3-d]pyrimidin-2-yl]-imidazolidin-2-one] was tested, and the Ki was 0.041 µM. With `CCCc1cc2c(N3CCn4c(nnc4C(F)(F)F)C3)nc(N3CC4N=COC4C3)nc2s1` (stereo not drawn) [Example 9-34, 7-[6-Propyl-2-(3a,4,6,6a-tetrahydro-pyrrolo[3,4-d]oxazol-5-yl)-thieno[2,3-d]pyrimidin-4-yl]-3-trifluoromethyl-5,6,7,8-tetrahydro-[1,2,4]triazolo[4,3-a]pyrazine] the Ki was 0.015 µM. Molecule `CCCc1cc2c(N3CCn4c(nnc4C(F)(F)F)C3)nc(OC)nc2s1` [Example 9-35, 7-(2-Methoxy-6-propyl-thieno[2,3-d]pyrimidin-4-yl)-3-trifluoromethyl-5,6,7,8-tetrahydro-[1,2,4]triazolo[4,3-a]pyrazine] has a Ki of 0.22 µM. With `CCCc1cc2c(N3CCn4c(nnc4C(F)(F)F)C3)nc(OCC)nc2s1` [Example 9-36, 7-(2-Ethoxy-6-propyl-thieno[2,3-d]pyrimidin-4-yl)-3-trifluoromethyl-5,6,7,8-tetrahydro-[1,2,4]triazolo[4,3-a]pyrazine] the Ki was 0.17 µM. `CCCc1cc2c(N3CCn4c(nnc4C(F)(F)F)C3)nc(N=[N+]=[N-])nc2s1` [Example 9-37, 7-(2-Azido-6-propyl-thieno[2,3-d]pyrimidin-4-yl)-3-trifluoromethyl-5,6,7,8-tetrahydro-[1,2,4]triazolo[4,3-a]pyrazine] gave a Ki of 0.2 µM. `CCCc1cc2c(N3CCn4c(nnc4C(F)(F)F)C3)nc(N)nc2s1` [Example 9-38, 6-Propyl-4-(3-trifluoromethyl-5,6-dihydro-8H-[1,2,4]triazolo[4,3-a]pyrazin-7-yl)-thieno[2,3-d]pyrimidin-2-ylamine] was tested, and the Ki was 0.049 µM. `CCCc1cc2c(N3CCn4c(nnc4C(F)(F)F)C3)nc(N(C)CCNC(C)=O)nc2s1` [Example 9-40, N-(2-{Methyl-[6-propyl-4-(3-trifluoromethyl-5,6-dihydro-8H-[1,2,4]triazolo[4,3-a]pyrazin-7-yl)-thieno[2,3-d]pyrimidin-2-yl]-amino}-ethyl)-acetamide] showed a Ki of 0.022 µM. `CCCc1cc2c(N3CCn4c(nnc4C(F)(F)F)C3)nc(N(C)CCNC=O)nc2s1` [Example 9-41, N-(2-{Methyl-[6-propyl-4-(3-trifluoromethyl-5,6-dihydro-8H-[1,2,4]triazolo[4,3-a]pyrazin-7-yl)-thieno[2,3-d]pyrimidin-2-yl]-amino}-ethyl)-formamide] was tested, and the Ki was 0.037 µM. For `CCCc1cc2c(N3CCn4c(nnc4C(F)(F)F)C3)nc(N(C)CCNC(=O)OC)nc2s1` [Example 9-42, (2-{Methyl-[6-propyl-4-(3-trifluoromethyl-5,6-dihydro-8H-[1,2,4]triazolo[4,3-a]pyrazin-7-yl)-thieno[2,3-d]pyrimidin-2-yl]-amino}-ethyl)-carbamic acid methyl ester], the Ki was 0.027 µM.
